Earlier results as cited in patent publication US20060287342A1, “Triazolopyrimidine heterocycles as cannabinoid receptor modulators” (priority 2005, published 2006).

Legend:
[1] = chronic administration for two weeks
[2] = tested on: human subjects; conditions: 16 week trial period

Structure (SMILES) | body weight [1] | body weight [2]
Cc1c(C(=O)NN2CCCCC2)nn(-c2ccc(Cl)cc2Cl)c1-c1ccc(I)cc1 [AM-251] | substantial body weight reduction | –
Cc1c(C(=O)NN2CCCCC2)nn(-c2ccc(Cl)cc2Cl)c1-c1ccc(Cl)cc1 [SR-141716] | – | dose-dependently reduced body weight
